Experimental data from patent publication US4329473A, “Oxoalkanoic acid derivatives as inhibitors of angiotensin converting enzyme” (priority 1980, dated 1982).
Where a SMILES comes first, the peptide text is derived from it.

biological target: T1, porcine plasma angiotensin-converting enzyme (Sus scrofa, UniProt F1RRW5); test: Angiotensin Converting Enzyme Inhibition Assay; format: biochemical; conditions: compared with Captopril / other examples, Table II
T1 construct: procine plasma angiotensin-converting enzyme; from tissue; host or cells: porcine plasma
T1 sequence (F1RRW5 34-1309): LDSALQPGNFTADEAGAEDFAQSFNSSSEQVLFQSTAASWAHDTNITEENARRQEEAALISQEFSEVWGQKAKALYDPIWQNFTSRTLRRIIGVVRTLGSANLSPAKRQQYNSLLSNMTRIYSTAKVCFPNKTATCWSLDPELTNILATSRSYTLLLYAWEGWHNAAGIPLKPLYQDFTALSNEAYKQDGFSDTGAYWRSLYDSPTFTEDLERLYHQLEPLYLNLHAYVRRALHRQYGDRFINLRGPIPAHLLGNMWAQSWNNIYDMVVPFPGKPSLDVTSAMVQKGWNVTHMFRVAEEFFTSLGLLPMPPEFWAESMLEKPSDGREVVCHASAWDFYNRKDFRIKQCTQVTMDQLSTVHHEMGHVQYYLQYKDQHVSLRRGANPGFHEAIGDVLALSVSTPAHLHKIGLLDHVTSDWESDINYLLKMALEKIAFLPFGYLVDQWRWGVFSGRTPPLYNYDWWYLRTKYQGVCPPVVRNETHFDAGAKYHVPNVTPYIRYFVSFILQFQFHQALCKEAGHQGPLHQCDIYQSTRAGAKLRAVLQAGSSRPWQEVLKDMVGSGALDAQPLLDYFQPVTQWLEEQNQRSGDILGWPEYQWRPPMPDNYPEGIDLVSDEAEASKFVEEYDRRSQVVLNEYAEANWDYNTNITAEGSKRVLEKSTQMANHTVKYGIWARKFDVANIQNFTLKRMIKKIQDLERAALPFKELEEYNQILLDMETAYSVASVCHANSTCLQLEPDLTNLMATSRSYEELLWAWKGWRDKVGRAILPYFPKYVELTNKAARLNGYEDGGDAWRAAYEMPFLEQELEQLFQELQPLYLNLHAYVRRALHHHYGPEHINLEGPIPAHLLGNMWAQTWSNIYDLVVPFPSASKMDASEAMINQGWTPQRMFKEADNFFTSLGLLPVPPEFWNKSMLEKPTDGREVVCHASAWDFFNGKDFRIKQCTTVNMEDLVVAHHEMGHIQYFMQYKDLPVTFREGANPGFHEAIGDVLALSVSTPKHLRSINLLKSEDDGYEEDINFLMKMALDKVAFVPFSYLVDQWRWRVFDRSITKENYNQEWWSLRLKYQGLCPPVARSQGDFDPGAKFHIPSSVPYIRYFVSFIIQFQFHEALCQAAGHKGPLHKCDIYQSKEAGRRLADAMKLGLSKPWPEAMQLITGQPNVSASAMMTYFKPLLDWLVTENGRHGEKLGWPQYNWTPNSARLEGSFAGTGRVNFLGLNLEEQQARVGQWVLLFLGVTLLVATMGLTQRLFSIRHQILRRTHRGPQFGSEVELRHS
Procedure: Said assay is described in the literature as follows: B. S. Tsai, M. J. Peach, M. C.
The Angiotensin Converting Enzyme Inhibition Assay represents a test procedure in which various compounds are tested for their ability to inhibit the conversion of the decapeptide angiotensin I or the tripeptide hippuryl-histidyl-leucine to its cleavage product, the dipeptide histidyl-leucine. This dipeptide is detected via its fluorescent condensation product with o-phthaladehyde.
For testing the effect of inhibitors on procine plasma angiotensin-converting enzyme, two assays were run in parallel. One contained the substrate (1-2 mM), enzyme (1 mg) and various concentrations (1 nM-10 mM) of an inhibitor, the other contained only the substrate and enzyme. The assays were conducted in sodium phosphate buffer, pH 7.6, under the conditions described in the article by Tsai, et al., supra.

Q: With `CC(CC(=O)C(Cc1ccccc1)NC(=O)c1ccccc1)C(=O)N1CCC[C@H]1C(=O)O` (stereo partly drawn) [Example XIII, 5-Benzamido-4-oxo-2-methyl-6-phenylhexanoyl-L-proline] as the compound, how does the “effectiveness in angiotensin converting enzyme inhibition assay (in words)” value read?
A: most effective compound

same assay, conditions: sodium phosphate buffer, pH 7.6; substrate 1-2 mM; inhibitor 1 nM-10 mM

Q: With `O=C(CCC(=O)N1CCC[C@H]1C(=O)O)C(Cc1ccccc1)NC(=O)C1CCCO1` (stereo partly drawn) [VI, 5-(2-Tetrahydrofuroylamino)-4-oxo-6-phenylhexanoyl-L-proline] as the compound, how does the IC50 read?
A: 0.02 µM

Q: Which IC50 does the source give for `CCCCOC(=O)NC(Cc1ccccc1)C(=O)CC(C)C(=O)N1CCC[C@H]1C(=O)O` (stereo partly drawn) [Example XVII, 5-n-Butyloxycarbonylamino-4-oxo-2-methyl-6-phenylhexanoyl-L-proline] here?
A: 0.033 µM

Q: With `CC(=O)NC(Cc1ccccc1)C(=O)CCC(=O)N1CCC[C@H]1C(=O)O` (stereo partly drawn) [XVIII, 5-Acetylamino-4-oxo-6-phenylhexanoyl-L-proline] as the compound, how does the IC50 read?
A: 0.33 µM

Q: With `O=C(NC(Cc1cccnc1)C(=O)CCC(=O)N1CCC[C@H]1C(=O)O)c1ccccc1` (stereo partly drawn) [Example XI, 5-Benzamido-4-oxo-6-(3-pyridyl)hexanoyl-L-proline] as the compound, how does the IC50 read?
A: 0.0057 µM

Q: With `CCCCOC(=O)NC(Cc1ccccc1)C(=O)CCC(=O)N1CCC[C@H]1C(=O)O` (stereo partly drawn) [Example XV, 5-n-Butyloxycarbonylamino-4-oxo-6-phenylhexanoyl-L-proline] as the compound, how does the IC50 read?
A: 0.21 µM

Q: For `Cc1ccccc1C(=O)NC(Cc1ccccc1)C(=O)CCC(=O)N1CCC[C@H]1C(=O)O` (stereo partly drawn) [VII, 5-O-Toluoylamino-4-oxo-6-phenylhexanoyl-L-proline], which IC50 is on record?
A: 0.046 µM

Q: For `CC(C)C(CC(=O)C(Cc1ccccc1)NC(=O)c1ccccc1)C(=O)N1CCC[C@H]1C(=O)O` (stereo partly drawn) [XIV, 5-Benzamido-4-oxo-2-isopropyl-6-phenylhexanoyl-L-proline], which IC50 is on record?
A: 0.23 µM

Q: For `CCCCCCCC(=O)NC(Cc1ccccc1)C(=O)CCC(=O)N1CCC[C@H]1C(=O)O` (stereo partly drawn) [XX, 5-n-Octanoylamino-4-oxo-6-phenylhexanoyl-L-proline], which IC50 is on record?
A: 0.65 µM

Q: For `O=C(NC(Cc1ccc(O)cc1)C(=O)CCC(=O)N1CCC[C@H]1C(=O)O)c1ccccc1` (stereo partly drawn) [Example X, 5-Benzamido-4-oxo-6-p-hydroxyphenylhexanoyl-L-proline], which IC50 is on record?
A: 0.0047 µM

Q: For `O=C(NC(Cc1ccccc1)C(=O)CCC(=O)N1CCC[C@H]1C(=O)O)c1ccco1` (stereo partly drawn) [Example V, 5-(2-Furoylamino)-4-oxo-6-phenylhexanoyl-L-proline], which IC50 is on record?
A: 0.0014 µM

Q: With `COc1ccc(CC(NC(=O)c2ccccc2)C(=O)CCC(=O)N2CCC[C@H]2C(=O)O)cc1OC` (stereo partly drawn) [VIII, 5-Benzamido-4-oxo-6-(3,4-dimethoxyphenyl)hexanoyl-L-proline] as the compound, how does the IC50 read?
A: 0.0014 µM

Q: With `CCCCCCCCCC(=O)NC(Cc1ccccc1)C(=O)CCC(=O)N1CCC[C@H]1C(=O)O` (stereo partly drawn) [XXI, 5-n-Decanoylamino-4-oxo-6-phenylhexanoyl-L-proline] as the compound, how does the IC50 read?
A: 6.5 µM

Q: For `CCCCCC(=O)NC(Cc1ccccc1)C(=O)CCC(=O)N1CCC[C@H]1C(=O)O` (stereo partly drawn) [Example XIX, 5-n-Hexanoylamino-4-oxo-6-phenylhexanoyl-L-proline], which IC50 is on record?
A: 0.047 µM

Q: Which IC50 does the source give for `O=C(NC(Cc1ccc(OCc2ccccc2)cc1)C(=O)CCC(=O)N1CCC[C@H]1C(=O)O)c1ccccc1` (stereo partly drawn) [Example IX, 5-Benzamido-4-oxo-6-p-benzyloxyphenylhexanoyl-L-proline] here?
A: 0.01 µM

Q: For `O=C(NC(Cc1ccccc1)C(=O)CCC(=O)N1CCC[C@H]1C(=O)O)c1ccncc1` (stereo partly drawn) [IV, 5-(4-Pyridyl)carbonylamino-4-oxo-6-phenylhexanoyl-L-proline], which IC50 is on record?
A: 0.02 µM

Q: Which IC50 does the source give for `O=C(NC(Cc1ccccc1)C(=O)CCC(=O)N1CCC[C@H]1C(=O)O)OCc1ccccc1` (stereo partly drawn) [Example III, 5-Benzyloxycarbonylamino-4-oxo-6-phenylhexanoyl-L-proline] here?
A: 0.24 µM

system: angiotensin converting enzyme; test: not given; conditions: literature; cited from earlier work

Q: For `C[C@H](NC(=O)[C@@H](N)Cc1ccccc1)C(=O)N1CCC[C@H]1C(=O)O` [phenylalanyl-alanyl-proline] (H-Phe-Ala-Pro-OH), which “inhibition of the converting enzyme (in words)” value is on record?
A: substantial degree of activity
